Reference: patent publication US8772266B2, “Fungicide pyrazole carboxamides derivates” (Bayer Cropscience AG, priority 2009, dated 2014)

Key:
Aspergillus parasiticus = assay: microbe, parasite or virus in culture; assay type: cell-based; details: 168 h, 50 μM of active ingredient, 7 days, fluorescence, read-out: inhibition of aflatoxines production
[1] = logP by HPLC on reversed-phase column (EEC Directive 79/831 Annex V.A8)
Sphaerotheca fuliginea = assay: In vivo preventive test on Sphaerotheca fuliginea (cucumber), Example G; details: 10 ppm of active ingredient, evaluated 7 days after inoculation
Description: After the spray coating has dried on, the plants are inoculated with an aqueous spore suspension of Sphaerotheca fuliginea.

Tetranychus urticae = assay: Spray application test on Tetranychus urticae; assay type: in vivo; details: 500 g of active ingredient/ha; after 6 days
Experimental: Solvent: 78.0 parts by weight acetone • 1.5 parts by weight dimethylformamide
Emulsifier: 0.5 parts by weight alkylarylpolyglcolether
French beans (Phaseolus vulgaris) which are heavily infested with all stages of the two spotted spidermite (Tetranychus urticae), are sprayed with a preparation of the active ingredient at the desired concentration.
After 6 days, mortality in % is determined. 100% means that all spider mites have been killed and 0% means that none of the spider mites have been killed.

Meloidogyne incognita = assay: Test on Meloidogyne incognita; assay type: in vivo; details: 20 ppm of active ingredient; after 14 days
Experimental: Solvent: 80.0 parts by weight of acetone
Vessels are filled with sand, a solution of the active ingredient, a suspension containing eggs and larvae of Meloidogyne incognita and salad seeds. The salad seeds germinate and the seedlings grow. Galls develop in the roots.
After 14 days the nematicidal activity is determined on the basis of the percentage of gall formation. 100% means that no galls were found; 0% means that the number of galls found on the roots of the treated plants was equal to that in untreated control plants.

Fusarium nivale = assay: In vivo curative test on Fusarium nivale (wheat); details: 500 ppm of active ingredient, evaluated 8 days after inoculation
Puccinia triticina = assay: In vivo curative test on Puccinia triticina (wheat); details: 500 ppm of active ingredient, evaluated 8 days after inoculation
Phakopsora pachyrhizi = assay: In vivo preventive test on Phakopsora pachyrhizi (soybean rust); details: 50 ppm of active ingredient, evaluated 11 days after inoculation
Experimental: Solvent: 28.5 parts by weight of acetone
Emulsifier: 1.5 parts by weight of polyoxyethylene alkyl phenyl ether
One day after spraying, the plants are inoculated with an aqueous spore suspension of the causal agent of soybean rust (Phakopsora pachyrhizi).
The test is evaluated 11 days after the inoculation.

Fusarium proliferatum = assay: Inhibition of Fumonisin FB1 produced by Fusarium proliferatum; assay type: cell-based; details: 120 h, read-out: inhibition of Fumonisin FB1 production

Compound	inhibition at 50 µM (Aspergillus parasiticus) [%]	chromatographic logP [1]	disease control (Sphaerotheca fuliginea) [%]	disease control (Fusarium nivale)	also measured
Cn1nc(C(F)F)c(C(=O)N(Cc2ccccc2[Si](C)(C)C)C2CC2)c1F [Example 3, N-cyclopropyl-3-(difluoromethyl)-5-fluoro-1-methyl-N-[2-(trimethylsilyl)benzyl]-1H-pyrazole-4-carboxamide]	> 80	4.36	–	–	–
CC(C)c1ccccc1CN(C(=O)c1c(C(F)F)nn(C)c1F)C1CC1 [Example 6]	–	–	100	100%	mortality in % (Tetranychus urticae): 80%; nematicidal activity (% reduction of galls vs untreated control) (Meloidogyne incognita): 80%; logP ([1]; HPLC, reversed-phase column (C 18), 40° C., 0.1% aqueous formic acid and acetonitrile, linear gradient 10% to 90% acetonitrile): 3.35
Cn1nc(C(F)F)c(C(=S)N(Cc2ccccc2[Si](C)(C)C)C2CC2)c1F [Example 38, N-cyclopropyl-3-(difluoromethyl)-5-fluoro-1-methyl-N-[2-(trimethylsilyl)benzyl]-1H-pyrazole-4-carbothioamide]	> 80	4.94	100	–	–
CC(c1cccc2ccccc12)N(C(=O)c1c(C(F)F)nn(C)c1F)C1CC1 (centres unmarked) [N-cyclopropyl-3-(difluoromethyl)-5-fluoro-1-methyl-N-[1-(1-naphthyl)ethyl]-1H-pyrazole-4-carboxamide, reference compound]	–	–	–	less than 95%	disease control (Puccinia triticina): less than 85%
Cc1nn(C)c(F)c1C(=S)N(Cc1ccccc1[Si](C)(C)C)C1CC1 [N-cyclopropyl-5-fluoro-1,3-dimethyl-N-[2-(trimethylsilyl)benzyl]-1H-pyrazole-4-carbothioamide]	–	–	–	–	disease control (Phakopsora pachyrhizi): less than 85%
Cn1nc(C(F)F)c(C(=O)N(Cc2ncc(C(F)(F)F)cc2Cl)C2CC2)c1F [N-{[3-chloro-5-(trifluoromethyl)pyridin-2-yl]methyl}-N-cyclopropyl-3-(difluoromethyl)-5-fluoro-1-methyl-1H-pyrazole-4-carboxamide]	–	–	–	–	inhibition at 50 µM (Fusarium proliferatum): < 55%
